Assay results: patent US8722714B2, “Oxazolidine derivatives as NMDA antagonists” (The Honk Kong University of Science and Technology, priority 2008, dated 2014)

What was measured:
[1] = test system: NMDA receptor; assay: Whole-cell patch clamp of NMDA-induced current in hippocampal neurons; format: cell-based, rat; details: for pooled NMDA current responses (normalized peak and plateau currents) / recovery of NMDA-induced current after compound was washed out: compound 500 uM co-applied with NMDA 200 uM; for pooled NMDA current responses (normalized peak and plateau currents): vs DMSO, n=6; for recovery of NMDA-induced current after compound was washed out: single hippocampal neuron
Experimental: Hippocampal neurons were prepared from embryonic day 18 Sprague-Dawley rats. After the hippocampus had been removed from the brain, isolated cells were plated onto Poly d-Lysine (PDL) (P0899, Sigma)-coated 35 mm dishes (153066, NUNC) at a density of 3×10^5 cell per plate using Neurobasal Medium (NB) (21103-049, Gibco) with B27 supplement (17504-044, Gibco), penicillin/streptomycin (15140, Gibco) and 1 mM L-glutamine (25030, Gibco). The cell culture was incubated at 37° C. in a humidified atmosphere of 5% CO2 in air. Half of the medium was changed with NB, B27 and 50 μM L-glutamine every 2 to 3 days. On day 12 in vitro (12 DIV), whole-cell patch clamp was performed. The internal solution contained 120 mM cesium chloride, 20 mM tetraethylammonium chloride, 2 mM magnesium chloride, 1 mM calcium chloride and 10 mM HEPES (pH 7.2). The external solution contained 137 mM sodium chloride, 1 mM sodium bicarbonate, 0.34 mM sodium phosphate dibasic, 5.37 mM potassium chloride, 0.44 mM potassium phosphate monobasic, 2.5 mM HEPES (pH 7.4) and 22.2 mM glucose. Samples mixed with 50 μM NMDA (M3262, Sigma) were arranged in linear array of up to 8 individual controlled pipes (List Medical, Germany) which were connected to solution reservoirs. Memantine (10 μM, M9292, Sigma) was used as a positive control. Pipettes were fire-polished to produce a pipette resistance of 3-5 MΩ. Holding potential of patched cells was kept at −80 mV and currents were recorded using Axopatch-200B amplifier (Axon Instruments, USA). Tetrodotoxin (5 μM) and bicuculline methiodide (20 μM) (0109, Tocris) were present in the bath solution to block synaptic transmission mediated by voltage-gated sodium channels and […], respectively. Data was analyzed by pClamp9 software and percentage of inhibition on NMDA-induced current was represented in comparison to solvent control.
The NMDA receptor is a gated ion channel, which allows inflow of current during a nerve impulse. Antagonists to the receptor would prevent the inflow of current.
In FIG. 1A, hippocampal neurons from embryonic day 18 rats were isolated, trypsinized, plated onto 35-mm plates at a density of 3×10^4 cells/plate and cultured in Neurobasal medium (NB) supplemented with B27 nutrient. Rat hippocampal neurons (10-14 DIV) were treated with NMDA (50 μM) in the absence or presence of the compound LC-02 (10 μg/mL). Data is presented as % of NMDA-induced current. DMSO is the solvent control.
(§1) In FIG. 1B, NMDA antagonistic effect of LC-02 on current responses of a single hippocampal neuron. NMDA (200 uM) was applied for 2.5 sec every 30 sec but these inter-response intervals have been deleted from the above figure for a better resolution of the kinetics of individual responses (blank space in trace). LC-02 (500 uM) was co-applied with NMDA.
In FIG. 1C, effects of LC-02 on pooled NMDA current responses. Normalized peak and plateau currents are shown in the absence (DMSO) and presence of LC-02.
as §1, with “8, (a)” for “1B,”, “LC-06” for “LC-02”, “NMDA. […] (b) Effects of LC-06 on pooled NMDA current responses. Normalized peak and plateau currents are shown in the absence (DMSO) and presence of LC-06.” for “NMDA.”
as §1, with “9, (a)” for “1B,”, “LC-24” for “LC-02”, “NMDA. […] (b) Effects of LC-24 on pooled NMDA current responses. Normalized peak and plateau currents are shown in the absence (DMSO) and presence of LC-24. […]” for “NMDA.”

[2] = test system: AKT; assay: Western blot detection of AKT phosphorylation in rat cortical neurons; format: cell-based; details: 500 μM; rat cortical neurons 11 DIV
Experimental: Embryonic day 18 Sprague Dawley rat pups were decapitated, their brains removed, and the cortices were isolated. Tissues were triturated and isolated neurons were plated onto 60 mm plate and cultured with Neurobasal medium supplemented with 2% B27 (Invitrogen). Experiments were performed after 10-12 days in vitro (DIV). Cultured cells were stimulated with a test compound or vehicle control (DMSO) for different time intervals and then lysed with RIPA buffer including protease inhibitors. Cell lysates were stored at −80° C. before use. Before being loaded, the lysates were heated to 95° C. for 10 min, vortexed and centrifuged for 7 min at 15,000×g. Supernatants were electrophoresed on 10% SDS-polyacrylamide gel and transblotted to nitrocellulose membrane. The membranes were washed with 5% (w/v) powdered milk dissolved in PBS with 0.1% Triton X-100, followed by incubation at 4° C. overnight with rabbit polyclonal against phospho-ERK or phosphor-AKT (1:1000, Cell Signaling Technology). Next, the membranes were washed and incubated with horseradish peroxidase (HRP)-conjugated secondary antibodies. The signal was visualized using ECL Western Blotting Kit. Blots were stripped and probed for total ERK or AKT expression. […]
Western blot analysis was performed on the total cell lysates. Antibodies against phospho-ERK1/2 and phospho-AKT were used and detected with HRP conjugated secondary antibodies. […]

Row | SMILES | NMDA induced current in hippocampal neurons ([1]; compound 10 μg/mL with NMDA 50 μM, rat hippocampal neurons 10-14 DIV) | pooled NMDA current responses (normalized peak and plateau currents) [1] | recovery of NMDA-induced current after compound was washed out [1] | phosphorylation of AKT [2]
1 | CC[C@H]1N[C@@H](CC(C)C)C(CC)(CC)O1 [LC-02] | decreases in NMDA induced current | significantly inhibits NMDA-induced current | Partial recovery of NMDA-induced current | phosphorylated within 5-15 min
2 | CCCC1(CCC)O[C@@H](CC)N[C@H]1CC(C)C [LC-06] |  | significantly inhibits NMDA-induced current | Partial recovery of NMDA-induced current | 
3 | CC[C@H]1N[C@@H](Cc2ccccc2)C(CC)(CC)O1 [LC-24] |  | significantly inhibits NMDA-induced current | Partial recovery of NMDA-induced current | 
